Results on eleven molecules are retold here after patent publication US4546176A, “7-Carboxymethoxyphenylacetamido-3-cephem derivatives and antibacterial preparations containing the same” (Eisai Co., Ltd., priority 1982, dated 1985).

In data set [1] the test system is Staph. aureus 209-P. Kind of data set: Antibacterial activities (MIC), Staph. aureus 209-P. In kind it is cell-based. As to conditions: Staphylococcus aureus. The text has this: (§1) (1) Antibacterial activities (MIC):
Data set [2] concerns Pseud. aeruginosa EP-01. Put plainly: Antibacterial activities (MIC), Pseud. aeruginosa EP-01. In kind it is cell-based. As to conditions: Pseudomonas aeruginosa, EP01.
From the text: as §1

The nature of data set [3]: Solubility in water. In kind it is physicochemical. Conditions: in distilled water at 25° C.
Data set [4] relates to Escher. coli NIHJ. Put plainly: Antibacterial activities (MIC), Escher. coli NIHJ. In kind it is cell-based. Conditions: Escherichia coli.
From the text: as §1

For data set [5], the system named is Kleb. pneumoniae EK-6. Kind of data set: Antibacterial activities (MIC), Kleb. pneumoniae EK-6. As to conditions: Klebsiella pneumoniae, EK6. In kind it is cell-based.
From the text: as §1

The subject of data set [6] is Proteus morganii EP-14. Put plainly: Antibacterial activities (MIC), Proteus morganii EP-14. Conditions: Morganella morganii, EP14. In kind it is cell-based.
From the text: as §1

Data set [7] relates to Ser. marcescens ES-75. Put plainly: Antibacterial activities (MIC), Ser. marcescens ES-75. It counts as cell-based. Conditions: Serratia marcescens, ES75.
From the text: as §1

A short description of data set [8]: Urinary excretion rate in mice. It counts as in vivo, ICR male mice. Conditions: mouse, sc, 20 mg/kg subcutaneous, urine up to 6 hours, bioassay. On the procedure:
ICR male mice (body weight: 20-30 g) were used. Each compound was dissolved in an M/15 phosphate buffer (pH 7.0) and administered in an amount of 20 mg/kg by the subcutaneous route. Urine was collected up to 6 hours after the administration. The concentration of the compound was determined by the bioassey technique (the agar-well method) using Pseudomonas aeruginosa as a test microorganism. On the basis of the thus-determined concentration, its excreted amount was obtained. The urinary excretion rate was then calculated from the excreted amount based on the amount administered.

For `Cn1nnnc1SCC1=C(C(=O)O)N2C(=O)[C@@H](NC(=O)[C@H](NC(=O)c3coc4cc(O)c(O)cc4c3=O)c3ccc(OCC(=O)O)cc3)[C@H]2SC1` [Example 4, Disodium 7β-[D-2-(4-carboxymethoxyphenyl)-2-(6,7-dihydroxy-4-oxo-4H-1-benzopyran-3-carboxamido)-acetamido]-3-(1-methyl-5-tetrazolyl)thiomethyl-3-cephem-4-carboxylate], the MIC is 6.25 µg/mL in data set [1]; not above 0.05 µg/mL in data set [2]; 0.8 µg/mL in data set [4]; not above 0.05 µg/mL in data set [5]; 0.8 µg/mL in data set [6]; 0.2 µg/mL in data set [7]. This molecule also showed a solubility in data set [3] not below 200 mg/mL.

For the molecule `CC(=O)OCC1=C(C(=O)O)N2C(=O)[C@@H](NC(=O)[C@H](NC(=O)c3coc4cc(O)c(O)cc4c3=O)c3ccc(OCC(=O)O)cc3)[C@H]2SC1` [Example 2], the solubility in data set [3] was not below 200 mg/mL.

As to `O=C(O)COc1ccc([C@@H](NC(=O)c2coc3c(O)c(O)ccc3c2=O)C(=O)N[C@@H]2C(=O)N3C(C(=O)O)=C(CSc4nnnn4CC(=O)O)CS[C@H]23)cc1` [Example 20, Trisodium 7β-[D-2-(4-carboxymethoxyphenyl)-2-(7,8-dihydroxy-4-oxo-4H-1-benzopyran-3-carboxamido)-acetamido]-3-(1-carboxymethyl-5-tetrazolyl)thiomethyl-3-cephem-4-carboxylate], the MIC came to 100 µg/mL in data set [1]; 0.8 µg/mL in data set [2]; 0.8 µg/mL in data set [4]; 0.1 µg/mL in data set [5]; 6.25 µg/mL in data set [6]; 0.8 µg/mL in data set [7]. Further, the dose excreted at 6 h in data set [8] was determined as 16%.

With `Cc1oc2cc(O)c(O)cc2c(=O)c1C(=O)N[C@@H](C(=O)N[C@@H]1C(=O)N2C(C(=O)[O-])=C(C[n+]3ccc(C(N)=O)cc3)CS[C@H]12)c1ccc(OCC(=O)O)cc1` [Example 41, Sodium 7β-[D-2-(4-carboxymethoxyphenyl)-2-(6,7-dihydroxy-2-methyl-4-oxo-4H-1-benzopyran-3-carboxamido)acetamido]-3-(4-carbamoylpyridinium)-methyl-3-cephem-4-carboxylate], the MIC in data set [1] is 50 µg/mL; in data set [2], 0.2 µg/mL; in data set [4], 0.4 µg/mL; in data set [5] it was not above 0.05 µg/mL; in data set [6], 6.25 µg/mL; in data set [7] it was 0.4 µg/mL. In data set [3], this molecule returned a solubility not below 300 mg/mL. Also, the dose excreted at 6 h in data set [8] was determined as 74%.

In the case of `O=C(O)COc1ccc([C@@H](NC(=O)c2coc3cc(O)c(O)cc3c2=O)C(=O)N[C@@H]2C(=O)N3C(C(=O)[O-])=C(C[n+]4ccc(CCS(=O)(=O)O)cc4)CS[C@H]23)cc1` [Example 46, Disodium 7β-[D-2-(4-carboxymethoxyphenyl)-2-(6,7-dihydroxy-4-oxo-4H-1-benzopyran-3-carboxamido)-acetamido]-3-[4-(2-sulfoethyl)pyridinium]methyl-3-cephem-4-carboxylate], the minimum inhibitory concentration (MIC) in data set [1] is 50 µg/mL; in data set [2], 0.4 µg/mL; in data set [4] it was 0.4 µg/mL; in data set [5], not above 0.05 µg/mL; in data set [6] it was 25 µg/mL; in data set [7], 0.8 µg/mL. This molecule had a solubility in data set [3] not below 300 mg/mL. The molecule further returned a dose excreted at 6 h in data set [8] of 62%.

With `O=C(O)COc1ccc([C@@H](NC(=O)c2coc3cc(O)c(O)cc3c2=O)C(=O)N[C@@H]2C(=O)N3C(C(=O)O)=C(CSc4nnnn4CC(=O)O)CS[C@H]23)cc1` [Example 8, Trisodium 7β-[D-2-(4-carboxymethoxyphenyl)-2-(6,7-dihydroxy-4-oxo-4H-1-benzopyran-3-carboxamido)-acetamido]-3-(1-carboxymethyl-5-tetrazolyl)thiomethyl-3-cephem-4-carboxylate], the MIC in data set [1] was 50 µg/mL; in data set [2] it was 0.1 µg/mL; in data set [4] it was 0.8 µg/mL; in data set [5], not above 0.05 µg/mL; in data set [6] it was 1.56 µg/mL; in data set [7], 0.2 µg/mL. This molecule had a solubility in data set [3] not below 300 mg/mL. In addition, the dose excreted at 6 h in data set [8] came out at 20%.

As for `Cc1oc2cc(O)c(O)cc2c(=O)c1C(=O)N[C@@H](C(=O)N[C@@H]1C(=O)N2C(C(=O)[O-])=C(C[n+]3ccccc3)CS[C@H]12)c1ccc(OCC(=O)O)cc1` [Example 40, Sodium 7β-[D-2-(4-carboxymethoxyphenyl)-2-(6,7-dihydroxy-2-methyl-4-oxo-4H-1-benzopyran-3-carboxamido)acetamido]-3-pyridiniummethyl-3-cephem-4-carboxylate], the MIC in data set [1] worked out at 100 µg/mL; in data set [2], 0.2 µg/mL; in data set [4] it was 0.8 µg/mL; in data set [5], 0.1 µg/mL; in data set [6] it was 12.5 µg/mL; in data set [7] it was 0.6 µg/mL. The same molecule showed a solubility in data set [3] not below 300 mg/mL. In addition, the dose excreted at 6 h in data set [8] turned out to be 39%.

On to `CO[C@@]1(NC(=O)[C@H](NC(=O)c2c(C)oc3cc(O)c(O)cc3c2=O)c2ccc(OCC(=O)O)cc2)C(=O)N2C(C(=O)[O-])=C(C[n+]3ccc(C(N)=O)cc3)CS[C@@H]21` [Example 49, 7β-[D-2-(4-Carboxymethoxyphenyl)-2-(6,7-dihydroxy-2-methyl-4-oxo-4H-1-benzopyran-3-carboxamido)-acetamido]-7α-methoxy-3-(4-carbamoylpyridinium)-methyl-3-cephem-4-carboxylate], for which, in data set [8], the dose excreted at 6 h was 35%.

With `NC(=O)c1cc[n+](CC2=C(C(=O)[O-])N3C(=O)[C@@H](NC(=O)[C@H](NC(=O)c4coc5cc(O)c(O)cc5c4=O)c4ccc(OCC(=O)O)cc4)[C@H]3SC2)cc1` [Example 45, Sodium 7β-[D-2-(4-carboxymethoxyphenyl)-2-(6,7-dihydroxy-4-oxo-4H-1-benzopyran-3-carboxamido)-acetamido]-3-(4-carbamoylpyridinium)methyl-3-cephem-4-carboxylate], the MIC in data set [1] was 25 µg/mL; in data set [2], 0.1 µg/mL; in data set [4], 0.8 µg/mL; in data set [5] it was not above 0.05 µg/mL; in data set [6], 6.25 µg/mL; in data set [7], 0.8 µg/mL. The same molecule had a solubility in data set [3] not below 300 mg/mL. In data set [8], this molecule had a dose excreted at 6 h of 38%.

Take `O=C(O)COc1ccc([C@@H](NC(=O)c2coc3cc(O)c(O)cc3c2=O)C(=O)N[C@@H]2C(=O)N3C(C(=O)[O-])=C(C[n+]4ccccc4)CS[C@H]23)cc1` [Example 44, Sodium 7β-[D-2-(4-carboxymethoxyphenyl)-2-(6,7-dihydroxy-4-oxo-4H-1-benzopyran-3-carboxamido)-acetamido]-3-pyridiniummethyl-3-cephem-4-carboxylate]: the MIC in data set [1] was 25 µg/mL; in data set [2], 0.1 µg/mL; in data set [4], 0.8 µg/mL; in data set [5], not above 0.05 µg/mL; in data set [6], 25 µg/mL; in data set [7], 0.8 µg/mL. Moreover, the solubility in data set [3] is not below 300 mg/mL. Besides, the dose excreted at 6 h in data set [8] worked out at 40%.

Regarding `Cc1oc2c(O)c(O)ccc2c(=O)c1C(=O)N[C@@H](C(=O)N[C@@H]1C(=O)N2C(C(=O)O)=C(CSc3nnnn3CC(=O)O)CS[C@H]12)c1ccc(OCC(=O)O)cc1` [Example 27, Trisodium 7β-[D-2-(4-carboxymethoxyphenyl)-2-(7,8-dihydroxy-2-methyl-4-oxo-4H-1-benzopyran-3-carboxamido)acetamido]-3-(1-carboxymethyl-5-tetrazolyl)-thiomethyl-3-cephem-4-carboxylate], the MIC in data set [1] is 100 µg/mL; in data set [2], 0.8 µg/mL; in data set [4], 0.4 µg/mL; in data set [5] it was not above 0.05 µg/mL; in data set [6], 6.25 µg/mL; in data set [7], 0.8 µg/mL. The same molecule had a dose excreted at 6 h in data set [8] of 30%.
